Source: patent US20190315814A1, “LANTIBIOTIC VARIANTS AND USES THEREOF” (priority 2016, published 2019)
In brackets after ≈: the same amount, converted by molar mass. Like-named read-outs stand apart in the source and are kept apart here.

Assays:
[1] = test system: Clostridium difficile UNT103-1; experiment: Non-cannulated Syrian hamster C. difficile infection model, oral gavage; assay type: in vivo, Golden Syrian hamsters
[2] = test system: Lactobacillus acidophilus (CCUG 4356); experiment: microbe, parasite or virus in culture; settings: CCUG4356, read-out: MIC L. acidophilus
[3] = test system: Peptostreptococcus anaerobius (ATCC 27337); experiment: microbe, parasite or virus in culture; settings: ATCC27337, read-out: MIC P. anaerobius
[4] = test system: Clostridium scindens (ATCC 35704); experiment: microbe, parasite or virus in culture; settings: ATCC35704, read-out: MIC C. scindens
Clostridium difficile = experiment: C. difficile MIC assay (broth dilution); assay type: cell-based; settings: Clostridioides difficile
Description: A minimum inhibitory concentration (MIC) assessment was performed using the anaerobic human gastrointestinal pathogen Clostridium difficile. A modification of the CLSI M11-A8 broth dilution method for Bacteroides fragilis susceptibility testing was used for C. difficile. (Methods for Dilution In Antimicrobial Susceptibility Tests for Bacteria That Grow Aerobically; Approved Standard-Eighth Edition. CLSI document M07-A8 (ISBN 1-56238-689-1). Vol. 29 No. 2. Clinical and Laboratory Standards Institute, USA, 2009). […] C. difficile was streaked and incubated on blood agar plates under anaerobic conditions. […] A 4 μL aliquot of each dilution was added to 196 μL of Reinforced Clostridial Medium (RCM), with test strains in wells of a 96 well plate. The final volume was 200 μL in each well.
Multisite variants were subsequently tested for specific antimicrobial activity in a C. difficile MIC assay (Table 10) (Methods for Antimicrobial Susceptibility Testing of Anaerobic Bacteria Approved Standard-Seventh Edition. CLSI document M11-A8 (ISBN 1-56238-790-1). Vol. 32 No. 5. Clinical and Laboratory Standards Institute, USA, 2012).

[5] = test system: Bifidobacterium breve (ATCC 15700); experiment: microbe, parasite or virus in culture; settings: ATCC15700, read-out: MIC B. breve
[6] = test system: Clostridium difficile UNT103-1; experiment: Ileal cannulated Syrian hamster C. difficile infection model; assay type: in vivo, Golden Syrian hamsters
Description: Following ileal cannulation surgery and recovery, male Golden Syrian hamsters were inoculated with Clostridium difficile UNT103-1 (VA11, non epidemic (cdtB-, REA group J) Curtis Donskey, Cleveland VA Hospital, Cleveland, Ohio). On Day 1, at 24 hrs after infection, all animals received a single subcutaneous injection of clindamycin (10 mg/kg). Test article formulations were administered three times per day (TID), starting on Day 2 at 18 hours after Clindamycin injection, for 5 consecutive days (Days 2 through 6). Vancomycin (positive control) was administered once a day at 20 mg/kg on Days 2 through 6, and followed until Day 22 to assess recurrence. The cecal contents from all hamsters that died on study or euthanized at the end ([…]) were tested for C. difficile Toxin A and Toxin B (tgc BIOMICS ELISA Kit, cat# TGC-E002-1) and for C. difficile Spore counts. Spore titer was determined by incubating the cecal contents in 50% final concentration of ethanol for 60 minutes at room temperature, centrifuging and resuspending the pellet in nano-pure water. The resuspension is incubated at 65° C. for 15 minutes, centrifuged again and the pellet resuspended again in nano-pure water. […] After 48 hours of anaerobic incubation, spore counts are determined as colony forming units (CFUs).

[7] = test system: Clostridium difficile UNT103-1; experiment: Second non-cannulated Syrian hamster C. difficile infection model, oral gavage dose range-finding; assay type: in vivo, Golden Syrian hamsters
Description: Following the recovery phase, male Golden Syrian hamsters were inoculated with Clostridium difficile UNT103-1 (VA11, non epidemic (cdtB-, REA group J) Curtis Donskey, Cleveland VA Hospital, Cleveland, Ohio). On Day 1, at 24 hrs after infection, all animals received a single subcutaneous injection of clindamycin (10 mg/kg). Test article formulated at 3 to 5 different doses were administered three times per day (TID), starting on Day 2 at 18 hours after Clindamycin injection, for 5 consecutive days (Days 2 through 6), and followed until Day 22 to assess recurrence. Vancomycin (positive control) was administered once a day at 20 mg/kg on Days 2 through 6. Cecal spore counts and Toxins A and B were determined as described above.

[8] = test system: Mycobacterium phlei (ATCC 11758); experiment: MIC assay against Mycobacterium phlei (acid-fast); assay type: cell-based; settings: Mycolicibacterium phlei, ATCC11758; acid-fast microorganism; single site variants
Staphylococcus aureus = experiment: MIC assay against Staphylococcus aureus; assay type: cell-based; settings: Staphylococcus aureus, ATCC700699, read-out: MIC S. aureus ATCC 700699
[9] = vancomycin control, 20 mg/kg once a day

`CN[C@H](CC(C)C)C(=O)N[C@H]1C(=O)N[C@@H](CC(N)=O)C(=O)N[C@H]2C(=O)N[C@H]3C(=O)N[C@H](C(=O)N[C@H](C(=O)O)c4cc(O)cc(O)c4-c4cc3ccc4O)[C@H](O)c3ccc(c(Cl)c3)Oc3cc2cc(c3O[C@@H]2O[C@H](CO)[C@@H](O)[C@H](O)[C@H]2O[C@H]2C[C@](C)(N)[C@H](O)[C@H](C)O2)Oc2ccc(cc2Cl)[C@H]1O` [Vancomycin] was tested, and the “Mean LOG10 CFU/mL of feces homogenates (cecal spore counts) at Day-22” value (from here on “Mean LOG10 CFU/mL of feces homogenates”) ([1]; hamster, in vivo, po) was 2.96 LOG10 CFU/mL, the “Percent Survival at Day-22” value ([1]; oral gavage TID Days 2-6, vancomycin 20 mg/kg once a day) was 83% and the “Toxin A level at Day-22” value ([1]; oral gavage, first value of A/B cell, limit of detection 0.8) was 84.2 ng/mL. The “Toxin B level at Day-22” value ([1]; oral gavage, second value of A/B cell, limit of detection 0.8) was 8 ng/mL, the MIC [2] was 1 µg/mL (≈ 0.69 µM) and the MIC [3] was 1 µg/mL (≈ 0.69 µM). The MIC [4] was 1 µg/mL (≈ 0.69 µM), the MIC (Clostridium difficile; ATCC9689, strain ATCC 9689, first value of cell (first of two independent tests), read-out: C. difficile MIC ATCC 9689) was 4 µg/mL (≈ 2.76 µM) and the MIC (Clostridium difficile; ATCC9689, strain ATCC 9689, multi-site variants, read-out: C. difficile MIC ATCC 9689) was 0.5 µg/mL (≈ 0.345 µM). For the same compound, the MIC (Clostridium difficile; ATCC9689, strain ATCC 9689, second value of cell (second independent test), read-out: C. difficile MIC ATCC 9689) was 8 µg/mL (≈ 5.52 µM), the MIC (Clostridium difficile; ATCC43255, strain ATCC 43255, read-out: C. difficile MIC ATCC 43255) was 1 µg/mL (≈ 0.69 µM) and the MIC (Clostridium difficile; ATCC43596, strain ATCC 43596, read-out: C. difficile MIC ATCC 43596) was 1 µg/mL (≈ 0.69 µM). The MIC (Clostridium difficile; ATCC43597, strain ATCC 43597, read-out: C. difficile MIC ATCC 43597) was 0.5 µg/mL (≈ 0.345 µM), the MIC (Clostridium difficile; ATCC70057, read-out: C. difficile MIC ATCC 70057, strain ATCC 70057, first value of cell (first of two independent tests)) was 0.5 µg/mL (≈ 0.345 µM) and the MIC (Clostridium difficile; ATCC70057, strain ATCC 70057, second value of cell (second independent test), read-out: C. difficile MIC ATCC 70057) was 1 µg/mL (≈ 0.69 µM). The MIC (Clostridium difficile; ATCCBAA1805, strain ATCC BAA-1805, multi-site variants, read-out: C. difficile MIC ATCC BAA-1805) was 1 µg/mL (≈ 0.69 µM), the MIC (Clostridium difficile; ATCCBAA1808, strain ATCC BAA-1808, read-out: C. difficile MIC ATCC BAA-1808) was 0.5 µg/mL (≈ 0.345 µM) and the MIC (Clostridium difficile; ATCCBAA1874, strain ATCC BAA-1874, read-out: C. difficile MIC ATCC BAA-1874) was 0.5 µg/mL (≈ 0.345 µM). For the same compound, the MIC (Clostridium difficile; ATCCBAA1875, strain ATCC BAA-1875, multi-site variants, read-out: C. difficile MIC ATCC BAA-1875) was 0.5 µg/mL (≈ 0.345 µM), the MIC (Clostridium difficile; BAA1805, strain BAA-1805, single site variants, read-out: C. difficile MIC BAA-1805) was 1 µg/mL (≈ 0.69 µM) and the MIC (Clostridium difficile; BAA1875, strain BAA-1875, single site variants, read-out: C. difficile MIC BAA-1875) was 1 µg/mL (≈ 0.69 µM). It also gave an MIC (Clostridium difficile; strain 103-1 (UNT103-1), read-out: C. difficile MIC 103-1) of 1 µg/mL (≈ 0.69 µM), an MIC (Clostridium difficile; strain 107-1 (UNT107-1), read-out: C. difficile MIC 107-1) of 4 µg/mL (≈ 2.76 µM) and an MIC (Clostridium difficile; strain BI1, read-out: C. difficile MIC BI1) of 8 µg/mL (≈ 5.52 µM). For the same compound, the MIC [5] was 0.5 µg/mL (≈ 0.345 µM), the “Mean LOG10 CFU/mL of feces homogenates” value ([6]; hamster, in vivo) was 3.24 LOG10 CFU/mL and the “Percent Survival at Day-22” value ([6]; ileal cannulated hamsters, test articles TID Days 2-6, vancomycin 20 mg/kg once a day) was 33%. For the same compound, the “Mean LOG10 CFU/mL of feces homogenates” value ([7]; hamster, in vivo, 20 mg/kg) was 6.66 LOG10 CFU/mL, the “Percent Survival at Day-22” value ([7]; hamster, in vivo, 20 mg/kg) was 50% and the “Toxin A level at Day-22” value [7, 9] was 292.6 ng/mL. The “Toxin B level at Day-22” value [7, 9] was 71.1 ng/mL, the MIC [8] was 0.25 µg/mL (≈ 0.173 µM) and the MIC (Staphylococcus aureus) was 2 µg/mL (≈ 1.38 µM).
